Source: patent US20060019929A1, “Combination therapies employing platelet aggregation drugs” (priority 2004, published 2006)
Entries after “also recorded” stand apart in the source; their conditions may differ.

What was measured:
Format in all cases: in vivo
[1] = tested on: patients who underwent percutaneous coronary intervention (PCI); assay: Maximum periprocedural CK-MB in patients with adjunctive platelet aggregation inhibitor (study data of Example 1 re-examined); conditions: adjunctive ASA 82 or 325 mg, eptifibatide, or clopidogrel 75 or 300 mg
Procedure: Study end points and definitions: The primary objective of the study was to evaluate the feasibility of treatment with P5P as a cardioprotective agent in high-risk elective PCI. The primary end point of infarct size was evaluated by the trapezoidal rule (Press W H, Teukolsky S A, Vetterling W T, Flannery B P. Numerical Recipes. Cambridge, UK: Cambridge University Press, 1994:127-133) using serial CK-MB enzyme measures performed at baseline and every 6 hours for 24 hours beginning immediately before initiation of PCI. The occurrence of myocardial ischemia within 24 hours after PCI was assessed as a secondary end point using continuous 12-lead electrocardiographic monitoring (Northeast Monitoring, Boston, Mass.). […] Area under the curve ST-segment deviation was measured from the onset of the first to the last contrast injection. […]

[2] = tested on: patients who underwent percutaneous coronary intervention (PCI); assay: Clinical safety (bleeding, transfusion, chemistries, coagulation, discontinuation)
Source text: (§1) Methods—Study Overview: 60 patients who underwent percutaneous coronary intervention (PCI) at 4 centers were randomized in a 2:1 double-blinded fashion to treatment with P5P or placebo. Inclusion criteria required prior determination for non-urgent PCI of a single-vessel lesion(s) and identification of ≧1 of the following clinical characteristics determining high risk for procedural-related ischemic complications (Califf R M, Abdelmeguid A E, Kuntz R E, Popma J J, Davidson C J, Cohen E A, Kleiman N S, Mahaffey K W, Topol E J, Pepine C J, et al. Myonecrosis after revascularization procedures. J Am Coll Cardiol 1998; 31:241-251; The ESPRIT Investigators. Novel dosing regimen of eptifibatide in planned coronary stent implantation: a randomised, placebo-controlled trial. Lancet 2000; 356:2037-2044): presence of an acute coronary syndrome (chest pain within 48 hours of PCI), recent AMI (≦7 days), diminished epicardial blood flow, angiographic thrombus, ejection fraction ≦30%, or vein graft lesion. In addition to any general contraindication to the PCI procedure or standard concomitant therapies, major exclusion criteria were creatine kinase (CK-MB) elevation above the upper limit of normal immediately before PCI, electrocardiographic evidence of atrial fibrillation or left bundle branch block, or evidence of any clinically significant abnormal laboratory finding (transaminases, bilirubin, or alkaline phosphatase >1.5 times the upper limit of normal or serum creatinine >1.8 mg/dl). Patients with elevated troponin measurements were permitted in the study provided that the peak troponin value was reported >24 hours before scheduled PCI, with documentation of a decreasing value before revascularization. After providing informed consent, patients randomized to treatment with P5P were administered enteric-coated P5P as a 10 mg/kg oral dose ≧4 hours before PCI followed by 2 daily doses of 5 mg/kg orally for 14 days. Compliance and reasons for discontinued treatments were recorded for all patients.
(§2) Study end points and definitions: The primary objective of the study was to evaluate the feasibility of treatment with P5P as a cardioprotective agent in high-risk elective PCI. The primary end point of infarct size was evaluated by the trapezoidal rule (Press W H, Teukolsky S A, Vetterling W T, Flannery B P. Numerical Recipes. Cambridge, UK: Cambridge University Press, 1994:127-133) using serial CK-MB enzyme measures performed at baseline and every 6 hours for 24 hours beginning immediately before initiation of PCI. The occurrence of myocardial ischemia within 24 hours after PCI was assessed as a secondary end point using continuous 12-lead electrocardiographic monitoring (Northeast Monitoring, Boston, Mass.). Evidence of periprocedural ischemia was defined as ST-segment depression of >100 μV within a 60-minute period of PCI, lasting ≧1 minute and separated from other episodes by ≧1 minute. Area under the curve ST-segment deviation was measured from the onset of the first to the last contrast injection. All cardiac markers and ST-segment monitoring data were analyzed by core laboratories blinded to treatment assignment (University of Maryland School of Medicine, Baltimore, Md.; Duke Ischemia Monitoring Laboratory, Durham, N.C.). […]

[3] = tested on: patients who underwent percutaneous coronary intervention (PCI); assay: Procedural and angiographic results (investigator-reported)
Source text: as §1
Except for a higher incidence of reduced epicardial flow among control patients, baseline angiographic and procedural characteristics also appeared similar between treatment groups (Table 1). Administration of P5P or placebo occurred an average of 6.1 and 8.4 hours before PCI, respectively. Stent implantation was performed in 100% and 97.3% of the placebo and P5P treatment groups, respectively. Only 1 vein graft intervention was performed using distal embolic protection. Although the right coronary artery was most commonly treated in both groups, fewer patients treated with placebo underwent revascularization of a saphenous vein graft (Table 2). Procedural angiographic complications (e.g., major dissection, abrupt vessel closure) were infrequent (Table 2).

[4] = tested on: patients who underwent percutaneous coronary intervention (PCI); assay: Periprocedural cardiac markers (serial CK-MB, troponin T) after high-risk elective PCI, P5P vs placebo
Source text: as §1, §2

[5] = tested on: patients who underwent percutaneous coronary intervention (PCI); assay: 30-day composite and individual clinical event rates after PCI; conditions: 30 days
Source text: Methods—Study Overview: 60 patients who underwent percutaneous coronary intervention (PCI) at 4 centers were randomized in a 2:1 double-blinded fashion to treatment with P5P or placebo. Inclusion criteria required prior determination for non-urgent PCI of a single-vessel lesion(s) and identification of ≧1 of the following clinical characteristics determining high risk for procedural-related ischemic complications (Califf R M, Abdelmeguid A E, Kuntz R E, Popma J J, Davidson C J, Cohen E A, Kleiman N S, Mahaffey K W, Topol E J, Pepine C J, et al. Myonecrosis after revascularization procedures. J Am Coll Cardiol 1998; 31:241-251; The ESPRIT Investigators. Novel dosing regimen of eptifibatide in planned coronary stent implantation: a randomised, placebo-controlled trial. Lancet 2000; 356:2037-2044): presence of an acute coronary syndrome (chest pain within 48 hours of PCI), recent AMI (≦7 days), diminished epicardial blood flow, angiographic thrombus, ejection fraction ≦30%, or vein graft lesion. […] Compliance and reasons for discontinued treatments were recorded for all patients.
as §2, with “Evidence of periprocedural ischemia was defined as ST-segment depression of >100 μV within a 60-minute period of PCI, lasting ≧1 minute and separated from other episodes by ≧1 minute.” left out, “injection.” for “injection. All cardiac markers and ST-segment monitoring data were analyzed by core laboratories blinded to treatment assignment (University of Maryland School of Medicine, Baltimore, Md.; Duke Ischemia Monitoring Laboratory, Durham, N.C.).”

[6] = tested on: patients who underwent percutaneous coronary intervention (PCI); assay: 24-h continuous 12-lead electrocardiographic ST monitoring after PCI
Procedure: Methods—Study Overview: 60 patients who underwent percutaneous coronary intervention (PCI) at 4 centers were randomized in a 2:1 double-blinded fashion to treatment with P5P or placebo. […] Compliance and reasons for discontinued treatments were recorded for all patients.
as §2, with “Evidence of periprocedural ischemia was defined as ST-segment depression of >100 μV within a 60-minute period of PCI, lasting ≧1 minute and separated from other episodes by ≧1 minute.” left out

With `COC(=O)[C@H](c1ccccc1Cl)N1CCc2sccc2C1` [Clopidogrel + placebo, clopidogrel] the “CK-MB max (mean)” value [1] was 3.41 ng/mL.
In the case of `Cc1ncc(COP(=O)(O)O)c(C=O)c1O` [P5P, pyridoxal-5-phosphate], the “abnormalities of routine chemistries or coagulation studies versus placebo” value ([2]; at 7 and 30 days) is reported as “no apparent differences”, the “safety issues related to treatment” value ([2]; human, in vivo) is reported as “No safety issues” and the “need for blood product transfusion” value ([2]; p=0.26 vs placebo) is reported as 2.5%. The major bleeding ([2]; p=0.27 vs placebo) was 2.8%, the “patients discontinued drug therapy before completion of the prescribed 2 weeks” value ([2]; p=0.77 vs placebo) was 30.8% and the “TIMI flow final 0/1” value ([3]; after PCI, n = 37) was 0 number (percent). The “TIMI flow final 2” value ([3]; after PCI, n = 37) was 0 number (percent), the “TIMI flow final 3” value ([3]; after PCI, n = 37) was 37 (100) number (percent) and the Diameter stenosis final ([3]; median (interquartile range), after PCI) was 0 (0-0) %. For the same compound, the “Procedural complications: Abrupt closure” value ([3]; n = 37) was 0 number (percent), the “Procedural complications: Distal embolization” value ([3]; n = 37) was 0 number (percent) and the “Procedural complications: Major dissection” value ([3]; n = 37) was 1 (3) number (percent). The “Procedural complications: No reflow” value ([3]; n = 37) was 0 number (percent), the “Procedural complications: None” value ([3]; n = 37) was 35 (95) number (percent) and the “Procedural complications: Side branch closure” value ([3]; n = 37) was 1 (3) number (percent). The “Procedural complications: Thrombus formation” value ([3]; n = 37) was 0 number (percent), the “maximum / peak periprocedural CK-MB level versus placebo” value ([4]; P5P vs placebo) was “significantly lower; also recorded: significant decrease” and the “Time to peak CK-MB” value ([4]; median (interquartile range)) was 11.0 (0-18.0), 36 h. For the same compound, the “change in troponin T” value ([4]; median (interquartile range), baseline to within 24 h after PCI) was 0 (0-0.07), 36 ng/ml, the “Area under the curve CK-MB (periprocedural infarct size)” value ([4]; median (interquartile range), enteric-coated P5P 10 mg/kg oral ≧4 h before PCI, then 5 mg/kg twice daily 14 days, CK-MB every 6 h for 24 h) was 18.6 (10.2-34.5), 35 ng/ml and the “Peak CK-MB” value ([4]; median (interquartile range), periprocedural) was 1.1 (0.5-2.4), 39 ng/ml. The 30-day deaths [5] was “no deaths”, the “30-day composite adverse event rate (death, nonfatal AMI, new and/or worsening heart failure, or recurrent ischemia)” value ([5]; p=1.0 vs placebo) was 17.9% and the “30-day nonfatal AMI” value ([5]; p=1.0 vs placebo) was 12.8%. For the same compound, the “Area under the curve ST deviation” value ([6]; median (interquartile range), 24-h continuous ST monitoring) was 1349 (951-2.263), 35 μV-min and the “Any post PCI ischemia” value ([6]; percent of patients, within 24 h after PCI) was 14.7-34%.
In the case of `CC(=O)Oc1ccccc1C(=O)O` [ASA + placebo, acetylsalicylic acid], the “CK-MB max (mean)” value [1] is reported as 3.41 ng/mL.
For eptifibatide [Eptifibatide + placebo], the “CK-MB max (mean)” value [1] was 3.40 ng/mL.
